In test [1] the test system is mice. In words: Elevated plus-maze test of anxiolytic effect. Type of test: in vivo, mouse. Conditions: for Minimum Effective Dose (anxiolytic effect): IP. As to the method: In the present invention, the anxiolytic effects can be evaluated by the elevated plus-maze test, which has been developed as a method for evaluating anxiety-related behaviors to screen anxiolytic drugs and has been widely used (FIG. 1). Specifically, the test is performed as follows: a candidate substance for an anxiolytic drug is orally or intraperitoneally administered to a mouse, the mouse is placed in an elevated plus-maze 30 minutes after the administration, and the potency of the anxiolytic effect is evaluated based on the number of entries into the open arms and the change in the time spent on the open arms.
The elevated plus-maze includes two open arms (25×5 cm) and two closed arms (25×5×15 cm), which were joined to a central platform 50 cm high above the floor (see FIG. 1). Because the closed arms were surrounded by barriers, a mouse could safely walk in the closed arms in spite of the elevated position. On the other hand, because the open arms were not surrounded by barriers, a mouse walking along the open arms would feel anxious that it might fall from the elevated position. Therefore, the more time the mouse spent in the open arms, or the greater the number of entries into the open arms, the less anxious the mouse would feel. Thus, the anxiolytic activity is determined based on these indices.
A mouse was placed on a portion of the central platform facing one of the open arms, and the test was started. During the 5-minute test time, the cumulative time spent in the open arms (abbr.: time in open arms), the number of visits to the open arms (abbr.: visits to open arms), and the total number of visits to the either arms (abbr.: total visits) were recorded. The percentage of the time spent in the open arms and the percentage of the number of visits to the open arms were calculated as indices of anxiety.
The data obtained from the elevated plus-maze test were represented as the mean values±SEM. The data were analyzed by one-way ANOVA, followed by the Fisher test for multiple comparisons.
Each of VYLPR (SEQ ID NO:1) (Example 1), YLPR (SEQ ID NO:2) (Example 2), and LPR (SEQ ID NO:3) (Example 3) dissolved in physiological saline was administered intraperitoneally (IP) or orally (PO) to mice (n=3 to 14) in the amount shown in each figure before the mice were placed on the central portion of the elevated plus-maze. The percentage of the time spent in the open arms, the percentage of the number of visits to the open arms, and the total number of visits to the both arms (total visits) were compared between groups administered each peptide and the control group (0 mg/kg). The results are shown in FIGS. 2 to 5, FIGS. 7 and 8, and Table 1.
Trypsin-digested ovalbumin was used as an active ingredient and was administered intraperitoneally and orally to test the anxiolytic effects using the open arms in the same manner as in Examples 1 to 3.
An aqueous solution of ovalbumin (20 mg/ml) was heated (10-min boiling), and bovine trypsin (E:S=1:100) was added to carry out a reaction at 37° C. for 5 hours. As a result, VYLPR (SEQ ID NO:1) was produced at a high efficiency of 44 mol %. When the aqueous solution of ovalbumin was not pre-heated, VYLPR (SEQ ID NO:1) was below the detection limit and was hardly produced even with the trypsin treatment. TPCK-treated Trypsin from bovine pancreas (Sigma) was used as the bovine trypsin. […]

For test [2], the system named is mice. In words: Elevated plus-maze test with peptide given in combination with an inhibitor or receptor antagonist. Type of test: in vivo, mouse. As to the method:
An anxiolytic peptide of the invention was administered in combination with the inhibitor or one of the antagonists for various receptors as follows, and tests were conducted in the same manner as in Example 1 in order to identify the effect of each antagonist on the anxiolytic activity of the peptide of the present invention, i.e., to identify the receptors on which the peptide of the invention acts.
COX inhibitor: Indomethacin, 10 mg/kg
DP1-R antagonist: BWA868C, 60 μg/kg

Four substances from patent US8946164B2, “Bioactive peptide” (Kyoto University, priority 2010, dated 2015) can be followed below.

Leu-Pro-Arg [LPR]: the “Minimum Effective Dose (anxiolytic effect)” value (from here on “Minimum Effective Dose”) in the test with mice [1] was found to be 0.3 mg/kg.
As to “Tyr-Leu-Pro-Arg (YLPR; Designed peptide)”, the “Minimum Effective Dose” value with mice [1] was determined as 0.3 mg/kg.
As to “Val-Tyr-Leu-Pro-Arg (VYLPR; Designed peptide)”, in the test on mice [2] (BWA868C 60 μg/kg, FIG. 10A), the “anxiolytic effect in the presence of prostaglandin DP1 receptor antagonist” value is recorded as “inhibited”. The “anxiolytic effect in the presence of adenosine A2A receptor antagonist” value with mice [2] (SCH58261 0.1 mg/kg, FIG. 10B) is on record as “inhibited”. For the same substance, the “Minimum Effective Dose” value in the test with mice [1] is 0.3 mg/kg.
Turning to “Undigested ovalbumin: Undigested ovalbumin (with and without heat treatment) used as the control for the trypsin digest [reference compound]”, the anxiolytic effect result with mice [1] (intraperitoneal administration) and with mice [1] (oral administration) was “did not show anxiolytic effects” throughout.
